From ChEMBL document CHEMBL4411307, “N,N'-diaryl-bishydrazones in a biphenyl platform: Broad spectrum antifungal agents” (Eur J Med Chem, 2019) come the findings set out here.

The test system of data set [1] is Candida albicans. The data set can be described thus: Fungicidal activity against fluconazole/ITC-resistant Candida albicans ATCC 64124 assessed as reduction in fungal growth at 0.5 to 2 times MIC incubated for 24 hrs followed by replating on PDA plates measured after 48 hrs Time-Kill assay. The data set is classed as functional, organism-based.
Data set [2] in a line: Selectivity index, ratio of compound concentration showing <20 to <30% hemolysis in mouse RBC to MIC for fluconazole/ITC-resistant Candida albicans ATCC 64124. The data set is classed as toxicity. The conditions noted are these: red blood cells (erythrocytes), read-out: Selectivity Index.
Data set [3] is described as follows: Hemolytic activity in mouse RBC at […] ug/ml after 1 hr relative to control. Format: ADME, cell-based, Erythrocyte. The conditions noted are these: red blood cells (erythrocytes), read-out: Activity.
For data set [4], the system named is Candida albicans. The data set can be described thus: Antifungal activity against fluconazole/ITC-resistant Candida albicans ATCC 64124 measured after 48 hrs by CLSI M27-A3 protocol based method. Format: functional. To be noted: ATCC 64124, 48 h.
Data set [5] in a line: Selectivity index, ratio of CC50 for human A549 cells to MIC for fluconazole/ITC-susceptible Candida albicans ATCC MYA-2876. The data set is classed as toxicity. To be noted: read-out: Selectivity Index.
Data set [6] relates to Candida albicans. Description: Fungicidal activity against fluconazole/ITC-resistant Candida albicans ATCC 10231 assessed as reduction in fungal growth at 0.5 to 2 times MIC incubated for 24 hrs followed by replating on PDA plates measured after 48 hrs Time-Kill assay. The data set is classed as functional, organism-based.
Data set [7] in a line: Selectivity index, ratio of CC50 for human A549 cells to MIC for fluconazole/ITC-resistant Candida albicans ATCC 10231. The conditions noted are these: read-out: Selectivity Index. The data set is classed as toxicity.
Data set [8] concerns Candida albicans. The data set can be described thus: Selectivity ratio of MIC50 for antibiofilm activity against fluconazole/ITC-resistant Candida albicans ATCC 10231 assessed as reduction in sessile growth to MIC for fluconazole/ITC-resistant Candida albicans ATCC 10231. The data set is classed as functional.
Data set [9] is described as follows: Selectivity index, ratio of CC50 for human A549 cells to MIC for fluconazole/ITC-resistant Candida albicans ATCC MYA-1237. The data set is classed as toxicity. The conditions noted are these: read-out: Selectivity Index.
The test system of data set [10] is Candida albicans. The data set can be described thus: Selectivity ratio of MIC90 for antibiofilm activity against fluconazole/ITC-resistant Candida albicans ATCC 10231 assessed as reduction in sessile growth to MIC for fluconazole/ITC-resistant Candida albicans ATCC 10231. The data set is classed as functional.
A short description of data set [11]: Selectivity index, ratio of CC50 for human A549 cells to MIC for Aspergillus terreus ATCC MYA-3633. Format: toxicity. The conditions noted are these: read-out: Selectivity Index.
Data set [12] in a line: Hemolytic activity in mouse RBC at 31.3 ug/ml after 1 hr relative to control. Format: ADME, cell-based, Erythrocyte. The conditions noted are these: red blood cells (erythrocytes), read-out: Activity.
Data set [13] is described as follows: Selectivity index, ratio of CC50 for human A549 cells to MIC for Aspergillus nidulans ATCC 38163. The data set is classed as toxicity. To be noted: read-out: Selectivity Index.
Data set [14] is described as follows: Selectivity index, ratio of compound concentration showing <20 to <30% hemolysis in mouse RBC to MIC for fluconazole/ITC-resistant Candida albicans ATCC 90819. The data set is classed as toxicity. The conditions noted are these: red blood cells (erythrocytes), read-out: Selectivity Index.
The target in data set [15] is Voltage-gated inwardly rectifying potassium channel KCNH2 (Homo sapiens, UniProt Q12809). Description: Inhibition of [3H]-dofetilide binding to human ERG expressed in HEK293 cell membranes measured after 1 hr by liquid scintillation counting method.
Another data set relates to A549. The data set can be described thus: Cytotoxicity against human A549 cells after 24 hrs by resazurin based assay. Format: cell-based. To be noted: a549, 24 h.
Data set [16] concerns Candida albicans. The data set can be described thus: Antifungal activity against fluconazole/ITC-susceptible Candida albicans ATCC MYA-2876 measured after 48 hrs by CLSI M27-A3 protocol based method. The data set is classed as functional. The conditions noted are these: ATCC MYA-2876, 48 h.
In data set [17] the test system is Candida albicans. Description: Selectivity ratio of MIC90 for antibiofilm activity against fluconazole/ITC-resistant Candida albicans ATCC 64124 assessed as reduction in sessile growth to MIC for fluconazole/ITC-resistant Candida albicans ATCC 64124. Format: functional.
A further data set concerns Staphylococcus aureus. Description: Antibacterial activity against methicillin-resistant Staphylococcus aureus. Format: functional, organism-based.
The next data set concerns Nakaseomyces glabratus. Description: Antifungal activity against Candida glabrata ATCC 2001 measured after 48 hrs by CLSI M27-A3 protocol based method. The data set is classed as functional. To be noted: CBS 138, 48 h.

Each structure is given as a SMILES string. In brackets after ≈: the same amount, converted by molar mass. Activity calls are given as the source filed them.

Voltage-gated inwardly rectifying potassium channel KCNH2, sequence (Q12809 whole entry): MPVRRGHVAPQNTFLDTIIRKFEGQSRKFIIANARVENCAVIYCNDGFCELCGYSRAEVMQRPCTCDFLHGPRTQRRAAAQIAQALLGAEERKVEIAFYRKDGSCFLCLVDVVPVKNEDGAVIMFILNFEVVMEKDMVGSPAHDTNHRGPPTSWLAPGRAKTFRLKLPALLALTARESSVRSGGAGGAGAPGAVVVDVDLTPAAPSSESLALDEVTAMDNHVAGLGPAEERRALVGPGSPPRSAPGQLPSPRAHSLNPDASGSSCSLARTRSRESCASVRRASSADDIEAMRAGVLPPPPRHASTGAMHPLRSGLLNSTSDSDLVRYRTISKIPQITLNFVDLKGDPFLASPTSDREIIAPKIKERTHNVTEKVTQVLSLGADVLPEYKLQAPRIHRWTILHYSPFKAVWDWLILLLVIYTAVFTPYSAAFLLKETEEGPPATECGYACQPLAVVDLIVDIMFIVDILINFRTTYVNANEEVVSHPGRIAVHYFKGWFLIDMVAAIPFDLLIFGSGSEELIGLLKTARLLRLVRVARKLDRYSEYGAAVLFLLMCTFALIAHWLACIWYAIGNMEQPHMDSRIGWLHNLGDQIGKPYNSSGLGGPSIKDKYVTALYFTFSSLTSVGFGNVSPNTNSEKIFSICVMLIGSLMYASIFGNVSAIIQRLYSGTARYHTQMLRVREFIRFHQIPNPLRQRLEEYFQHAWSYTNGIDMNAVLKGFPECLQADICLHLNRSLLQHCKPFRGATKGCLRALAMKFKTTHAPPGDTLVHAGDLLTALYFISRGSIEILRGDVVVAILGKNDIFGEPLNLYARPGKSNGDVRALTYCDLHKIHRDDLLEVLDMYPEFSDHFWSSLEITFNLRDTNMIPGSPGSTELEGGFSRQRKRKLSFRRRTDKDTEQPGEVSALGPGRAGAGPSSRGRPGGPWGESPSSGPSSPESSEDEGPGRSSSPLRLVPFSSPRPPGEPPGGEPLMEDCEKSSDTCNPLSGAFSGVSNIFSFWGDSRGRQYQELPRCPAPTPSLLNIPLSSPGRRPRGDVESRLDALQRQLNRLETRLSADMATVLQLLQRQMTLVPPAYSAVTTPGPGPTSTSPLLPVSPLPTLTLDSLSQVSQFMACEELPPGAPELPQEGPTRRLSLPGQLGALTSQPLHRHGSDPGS

The term MIC denotes the smallest concentration in the dilution series that meets the test's criterion for growth inhibition. In general, IC50 refers to the concentration that inhibits the measured activity by half. High values mean a need for much substance, low ones inhibition by little substance. A word on the CC50: it is the concentration at which the toxic effect on the cells reaches its halfway point. Higher therefore signals lower toxicity to the cells. Turning to `C/C(=N\Nc1ccc(F)cc1)c1ccc(-c2ccc(/C(C)=N/Nc3ccc(F)cc3)cc2)cc1`, the outcome in the data set on Candida albicans [1] and in the data set with Candida albicans [6] was Active. The selectivity ratio was 1 to 32 in [2]; 4.3 in [5]; 8.5 in data set [7]; 4 in the data set on Candida albicans [8]; 2.1 in [9]; 16 in the data set on Candida albicans [10]. The selectivity ratio in data set [11] is 0.5; in data set [13] it was 2.1; in [14], 1 to 32; with Candida albicans [17] it was 8. The hemolysis at 1 h, 15.6 ug/ml in data set [3] (at 15.6 µg/mL) came out at 7.4%. The hemolysis at 1 h, 0.975 ug/ml in data set [3] worked out at 1.4%. For the same compound, the MIC against Candida albicans [4] was 3.9 µg/mL (≈ 8.58 µM); with Candida albicans [16], 3.9 µg/mL (≈ 8.58 µM); in the data set on Nakaseomyces glabratus, 15.6 µg/mL (≈ 34.3 µM). In addition, the hemolysis at 1 h, 31.3 ug/ml in data set [12] was found to be 9.5%. In addition, in data set [15], the IC50 is above 30 µM. For the same compound, the CC50 with A549 was 16.6 µg/mL (≈ 36.5 µM). Also, in the data set on Staphylococcus aureus, the outcome was inactive.
